Measurements as given in publication PMC3599558, “Profiling of hepatic clearance pathways of Pittsburgh compound B and human liver cytochrome p450 phenotyping” (EJNMMI Research, 2013).
Entries after “also recorded” stand apart in the source; their conditions may differ.

Key:
[1] = tested on: serotonin 5HT1A receptor; design: method as in PMID 17574977; details: inhibitor of CYP2E1; cited from earlier work
[2] = biological target: T1, rhCYP 2C9 (Homo sapiens, UniProt P11712); assay: Incubation with recombinantly expressed CYP2C9; assay type: in vitro ADME
T1 construct: purchased BD Gentest (Woburn, MA, USA); host or cells: Baculovirus transfected insect cell system
T1 sequence (P11712 whole entry): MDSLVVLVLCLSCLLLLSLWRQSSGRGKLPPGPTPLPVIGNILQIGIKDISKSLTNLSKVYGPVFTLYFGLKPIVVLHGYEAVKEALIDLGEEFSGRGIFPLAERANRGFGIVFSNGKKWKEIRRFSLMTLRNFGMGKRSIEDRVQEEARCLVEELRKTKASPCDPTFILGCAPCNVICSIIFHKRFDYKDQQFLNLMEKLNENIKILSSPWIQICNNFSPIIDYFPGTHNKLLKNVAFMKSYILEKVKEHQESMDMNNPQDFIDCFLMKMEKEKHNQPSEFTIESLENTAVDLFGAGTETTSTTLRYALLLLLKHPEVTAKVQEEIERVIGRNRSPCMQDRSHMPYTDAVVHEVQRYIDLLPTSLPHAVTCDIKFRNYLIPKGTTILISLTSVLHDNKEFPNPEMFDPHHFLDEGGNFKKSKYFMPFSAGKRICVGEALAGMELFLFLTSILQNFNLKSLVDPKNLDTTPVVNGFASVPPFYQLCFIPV
Experimental: (§1) After a 10 min preincubation at 37°C, the reaction was initiated by addition of 2.0 mM NADPH and incubated for 15 and 60 min. The reactions were terminated by the addition of two volumes of DMSO. Samples were subsequently centrifuged at 4,000 rpm for 10 min. From the resulting supernatant, 10 μL was analysed by liquid chromatography/tandem mass spectrometry (LC-MS/MS). […] Quantification was performed on a TSQ-Vantage instrument (Thermofisher Scientific, Bremen, Germany), fitted with an electrospray ionization source. […] Elution was performed on a Waters XBridge C18 column (3 × 2.1 mm, 2.5 μm; Waters, Boston MA, USA). Solvents A (0.1% formic acid in water) and B (0.1% formic acid in acetonitrile) were used at a flow rate of 500 μL/min. […] The final ratio was held for a further 0.6 min and then reduced again to 5% B over 0.05 min. Data was processed using QuickQuan (Thermofisher Scientific, Bremen, Germany).

[3] = tested on: rhCYPs 1A2, 2C9, 2C19, 2D6, and 3A4; assay: Metabolite profiling of rhCYP incubations; assay type: in vitro ADME, human; details: qualitative LC/MS
Experimental: After a 10 min preincubation at 37°C, the reaction was initiated by addition of 2.0 mM NADPH and incubated for 15 and 60 min. The reactions were terminated by the addition of two volumes of DMSO. Samples were subsequently centrifuged at 4,000 rpm for 10 min. From the resulting supernatant, 10 μL was analysed by liquid chromatography/tandem mass spectrometry (LC-MS/MS). Control experiments were performed by substituting the active enzyme preparation by insect cell preparations containing no rhCYP.
Qualitative high resolution LC/MS data was acquired on a Waters Premier hybrid quadrupole time-of-flight (QToF) mass spectrometer (Waters, Boston MA, USA) equipped with a liquid chromatography system, using a 10 min gradient method and an Acquity UPLC BEH C18 (2.1 × 100 mm, 1.7 μm) column (Waters, Boston MA). The QToF Premier operated with a cone voltage of 30 eV and collision energy of 30 eV. The gradient employed was 95% solvent A (25 mM ammonium acetate, pH = 9) as the start condition followed by a linear ramp of organic phase concentration from 5% B (25 mM ammonium acetate/MeOH/acetonitrile 10/10/80) to 95% B over 6.5 min. The final ratio was held for 2 min and then reduced again to 5% B over 1 min. Interpretation of data was performed with Metabolynx software (Waters, Boston, MA, USA).

[4] = biological target: T2, rhCYP 3A4 (Homo sapiens, UniProt P08684); assay: Incubation with recombinantly expressed CYP3A4; assay type: in vitro ADME
T2 construct: purchased BD Gentest (Woburn, MA, USA); host or cells: Baculovirus transfected insect cell system
T2 sequence (P08684 whole entry): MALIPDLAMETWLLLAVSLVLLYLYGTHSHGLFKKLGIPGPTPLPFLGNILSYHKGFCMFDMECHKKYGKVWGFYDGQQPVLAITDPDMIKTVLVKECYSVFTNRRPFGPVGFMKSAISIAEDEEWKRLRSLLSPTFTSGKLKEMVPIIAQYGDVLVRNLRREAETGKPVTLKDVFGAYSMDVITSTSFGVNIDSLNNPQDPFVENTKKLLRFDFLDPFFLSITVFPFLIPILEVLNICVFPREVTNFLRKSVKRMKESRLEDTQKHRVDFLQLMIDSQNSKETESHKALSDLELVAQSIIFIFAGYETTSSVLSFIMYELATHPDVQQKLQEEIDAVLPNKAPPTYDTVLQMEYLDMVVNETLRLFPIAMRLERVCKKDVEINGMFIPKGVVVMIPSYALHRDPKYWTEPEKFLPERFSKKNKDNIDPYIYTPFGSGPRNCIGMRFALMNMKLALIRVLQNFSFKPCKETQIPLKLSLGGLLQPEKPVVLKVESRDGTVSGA
Experimental: as §1

[5] = biological target: T3, rhCYP 2C19 (Homo sapiens, UniProt P33261); assay: Incubation with recombinantly expressed CYP2C19; assay type: in vitro ADME
T3 construct: purchased BD Gentest (Woburn, MA, USA); host or cells: Baculovirus transfected insect cell system
T3 sequence (P33261 whole entry): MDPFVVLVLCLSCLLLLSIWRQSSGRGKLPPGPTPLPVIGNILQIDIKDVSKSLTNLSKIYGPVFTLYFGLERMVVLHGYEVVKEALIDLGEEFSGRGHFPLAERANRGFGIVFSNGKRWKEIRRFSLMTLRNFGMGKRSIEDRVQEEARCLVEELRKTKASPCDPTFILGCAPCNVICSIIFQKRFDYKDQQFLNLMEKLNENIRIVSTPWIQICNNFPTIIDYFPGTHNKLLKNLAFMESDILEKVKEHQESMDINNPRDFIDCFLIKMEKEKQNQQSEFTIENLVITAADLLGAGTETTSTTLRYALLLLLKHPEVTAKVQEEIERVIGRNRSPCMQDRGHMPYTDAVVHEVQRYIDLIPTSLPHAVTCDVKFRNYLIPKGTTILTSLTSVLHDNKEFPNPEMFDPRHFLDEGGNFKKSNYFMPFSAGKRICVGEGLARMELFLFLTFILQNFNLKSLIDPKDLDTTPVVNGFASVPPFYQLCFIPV
Experimental: as §1

[6] = Human liver microsomal metabolism (no inhibitor); assay type: in vitro ADME; details: HLM incubations from phenotyping experiments, qualitative LC/MS
Experimental: (§2) After a 10 min preincubation at 37°C, the reaction was initiated by addition of 0.15 mM NADP and further incubated for either 15 or 60 min. The reactions were terminated by the addition of two volumes DMSO. Samples were subsequently centrifuged at 4,000 rpm for 10 min. From the resulting supernatant, 10 μL was analyzed by LC-MS/MS.
(§3) Quantification was performed on a TSQ-Vantage instrument (Thermofisher Scientific, Bremen, Germany), fitted with an electrospray ionization source. […] Elution was performed on a Waters XBridge C18 column (3 × 2.1 mm, 2.5 μm; Waters, Boston MA, USA). Solvents A (0.1% formic acid in water) and B (0.1% formic acid in acetonitrile) were used at a flow rate of 500 μL/min. […] The final ratio was held for a further 0.6 min and then reduced again to 5% B over 0.05 min. Data was processed using QuickQuan (Thermofisher Scientific, Bremen, Germany).
Qualitative high resolution LC/MS data was acquired on a Waters Premier hybrid quadrupole time-of-flight (QToF) mass spectrometer (Waters, Boston MA, USA) equipped with a liquid chromatography system, using a 10 min gradient method and an Acquity UPLC BEH C18 (2.1 × 100 mm, 1.7 μm) column (Waters, Boston MA). The QToF Premier operated with a cone voltage of 30 eV and collision energy of 30 eV. […] The final ratio was held for 2 min and then reduced again to 5% B over 1 min. […]

[7] = biological target: T4, rhCYP1A2 (Homo sapiens, UniProt P05177); assay: Incubation with recombinantly expressed CYP1A2; assay type: in vitro ADME
T4 construct: purchased BD Gentest (Woburn, MA, USA); host or cells: Baculovirus transfected insect cell system
T4 sequence (P05177 1-516): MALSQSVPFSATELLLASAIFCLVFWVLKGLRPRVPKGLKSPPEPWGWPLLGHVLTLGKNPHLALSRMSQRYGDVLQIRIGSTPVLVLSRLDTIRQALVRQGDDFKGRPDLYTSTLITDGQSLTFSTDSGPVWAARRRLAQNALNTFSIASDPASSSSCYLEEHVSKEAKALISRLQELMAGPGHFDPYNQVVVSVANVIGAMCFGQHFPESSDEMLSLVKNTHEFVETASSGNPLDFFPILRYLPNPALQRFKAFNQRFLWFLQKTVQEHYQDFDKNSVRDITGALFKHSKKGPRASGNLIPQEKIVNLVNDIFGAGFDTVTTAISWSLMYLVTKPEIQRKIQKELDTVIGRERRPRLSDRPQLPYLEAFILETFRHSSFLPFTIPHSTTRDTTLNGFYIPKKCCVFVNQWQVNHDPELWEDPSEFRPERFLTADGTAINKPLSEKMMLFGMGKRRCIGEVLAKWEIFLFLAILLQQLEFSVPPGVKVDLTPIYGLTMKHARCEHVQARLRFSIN
Experimental: as §1

[8] = Human liver microsomal metabolism in the presence of cytochrome P450 diagnostic inhibitors; assay type: in vitro ADME; details: PiB 1.0 μM, 60 min
Experimental: as §2, §3
Qualitative high resolution LC/MS data was acquired on a Waters Premier hybrid quadrupole time-of-flight (QToF) mass spectrometer (Waters, Boston MA, USA) equipped with a liquid chromatography system, using a 10 min gradient method and an Acquity UPLC BEH C18 (2.1 × 100 mm, 1.7 μm) column (Waters, Boston MA). The QToF Premier operated with a cone voltage of 30 eV and collision energy of 30 eV. […] The final ratio was held for 2 min and then reduced again to 5% B over 1 min. Interpretation of data was performed with Metabolynx software (Waters, Boston, MA, USA).

[9] = biological target: T5, rhCYP 2D6 (Homo sapiens, UniProt P10635); assay: Incubation with recombinantly expressed CYP2D6; assay type: in vitro ADME
T5 construct: purchased BD Gentest (Woburn, MA, USA); host or cells: Baculovirus transfected insect cell system
T5 sequence (P10635 whole entry): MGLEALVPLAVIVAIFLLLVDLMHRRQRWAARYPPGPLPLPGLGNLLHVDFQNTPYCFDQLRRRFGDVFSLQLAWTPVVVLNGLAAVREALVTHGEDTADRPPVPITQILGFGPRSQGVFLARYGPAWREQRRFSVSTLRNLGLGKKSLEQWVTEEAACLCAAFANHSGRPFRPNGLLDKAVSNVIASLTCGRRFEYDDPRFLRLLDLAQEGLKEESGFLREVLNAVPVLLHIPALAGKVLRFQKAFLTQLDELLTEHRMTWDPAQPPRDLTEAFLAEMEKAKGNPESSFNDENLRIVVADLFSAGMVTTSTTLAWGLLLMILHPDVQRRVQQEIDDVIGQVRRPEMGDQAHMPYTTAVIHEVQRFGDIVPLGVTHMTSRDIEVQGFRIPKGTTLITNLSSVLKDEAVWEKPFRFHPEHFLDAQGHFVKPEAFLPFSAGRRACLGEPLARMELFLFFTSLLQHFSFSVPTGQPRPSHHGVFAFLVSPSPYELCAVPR
Experimental: as §1

[10] = PiB 1.0 μM, rhCYP 100 pmol/mL, 15 and 60 min
[11] = scaled for approximate relative abundances of CYP isoforms in human liver [10]

observed turnover with rhCYP2C9 [2, 10] | contribution of CYP2C9 to metabolism after scaling [2, 11] | drug-related species observed in rhCYP incubations [3] | observed turnover with rhCYP3A4 [4, 10] | contribution of CYP3A4 to metabolism after scaling [4, 11] | observed turnover with rhCYP2C19 [5, 10] | contribution of CYP2C19 to metabolism after scaling [5, 11] | drug-related species detected in HLM [6] | observed turnover with rhCYP1A2 [7, 10] | contribution of CYP1A2 to metabolism after scaling [7, 11] | change in HLM turnover with inhibitor of CYP1A2 ([8]; alpha-naphthoflavone 3 μM) | change in HLM turnover with inhibitor of CYP2C19 ([8]; benzylphenobarbital 1 μM) | change in HLM turnover with inhibitor of CYP3A4 ([8]; ketoconazole 1 μM) | change in HLM turnover with inhibitor of CYP2D6 ([8]; quinidine 3 μM) | change in HLM turnover with inhibitor of CYP2C9 ([8]; sulfaphenazole 10 μM) | observed turnover with rhCYP2D6 [9, 10] | contribution of CYP2D6 to metabolism after scaling [9, 11] | SMILES | metabolism after pretreatment with disulfuram [1]
 |  |  |  |  |  |  |  |  |  |  |  |  |  |  |  |  | COc1ccccc1N1CCN(CCN(C(=O)C2CCC(F)CC2)c2ccccn2)CC1 (stereo not drawn) [FCWAY] | significantly reduced
substrate | primarily metabolized | desmethyl metabolite | substrate; also recorded: high turnover | primarily metabolized | substrate | only minor contributions | desmethyl metabolite | substrate; also recorded: high turnover | primarily metabolized | significant reduction | reduction in turnover is also apparent | significant reduction | reduction in turnover is also apparent | reduction in turnover is also apparent | substrate | only minor contributions | CNc1ccc(-c2nc3ccc(O)cc3s2)cc1 [PiB] | 
